Measured values from patent publication US20250241890A1, “1,4-DIUREAS AND 1,4-DITHIOUREAS AND USES THEREOF” (Purdue Research Foundation, priority 2024, published 2025).

Assays:
Assay type in all cases: biochemical
tau isoform 0N4R = target: T1, tau isoform 0N4R (Homo sapiens, UniProt P10636); test: PICUP assay of tau 0N4R oligomer formation; conditions: tau 10 μM, compound 50 μM (molar ratio 1:5)
T1 construct: made in house; host or cells: Rosetta BL21 E. coli
Method: FIG. 5. […] Compounds 1, 2, and 8 were selected for their α-syn anti-oligomerization activity. Compound 7 was used as di-urea counterpart of compound 8, as compound 1 is the di-urea counterpart of compound 2, a dithiourea derivative. Tau (10 μM) was cross-linked (PICUP assay) with different concentrations of the di-substituted aminoindolyl derivatives at 50 μM (molar ratio 1:5).
Chemical and peptide source. Dimethylsulfoxide (DMSO) and thioflavin-T (ThT) were purchased from Alfa Aesar (Ward Hill, MA). Recombinant α-synuclein (α-syn) was procured from rPeptide (WatKinsville, GA). The recombinant p-tau isoform 1N4R was prepared as published previously (Fortin et al. 2021, Sui et al. 2015, Liu et al. 2020). Concerning the preparation of tau 0N4R, a bacterial expression plasmid consisting of the vector pET30a carrying a cDNA encoding the human Tau 0N4R isoform was a kind gift of Dr. Benjamin Wolozin (Boston University). E. coli stock (Rosetta BL21 E. coli (CamR) containing pET30a [0N4R tau wt] (KanR)) was grown in LB medium supplemented with kanamycin (50 μg/mL) and chloramphenicol (50 μg/mL). […] General Characterizations. ^1H and ^13C {1H} NMR spectra were recorded using a 500 MHz Bruker instrument working at a frequency of 500 MHz for ^1H and at 126 MHz for ^13C. […] Thioflavin fluorescence assays. Thioflavin fluorescence assays were used to monitor fibril formation of commercial recombinant α-syn at a final concentration of 2 μM and treated with control DMSO and different compounds. […] Kinetics of fibril formation have been performed using ThT as published previously.^6, 12, 13, 24 The fluorescence emission experiments were performed with the excitation and emission wavelengths set at 440 and 485 nm, respectively, with a Synergy HT multi-mode microplate reader (BioTek, Winooski, VT). Samples were measured in three replicates. […] For each time point, arbitrary units of fluorescence were calculated from the mean values normalized against the maximum value. The percentage of fluorescence intensity at the plateau phase in Table 1 was expressed as mean #SEM. […]

p-tau isoform 1N4R = target: T2, p-tau isoform 1N4R (Homo sapiens, UniProt P10636); test: PICUP assay of p-tau 1N4R oligomer formation; conditions: p-tau 4 μM, compound 50 μM (molar ratio 1:12.5)
T2 construct: made in house

α-syn fibrils = target: T3, α-syn fibrils (Homo sapiens, UniProt P37840); test: Transmission electron microscopy (TEM) of α-syn fibrils; conditions: α-syn 2 μM, compound 100 μM, ~22 hours at 37° C.
T3 construct: purchased rPeptide (Watkinsville, GA)

T1 sequence (P10636 1-383 isoform P10636-6): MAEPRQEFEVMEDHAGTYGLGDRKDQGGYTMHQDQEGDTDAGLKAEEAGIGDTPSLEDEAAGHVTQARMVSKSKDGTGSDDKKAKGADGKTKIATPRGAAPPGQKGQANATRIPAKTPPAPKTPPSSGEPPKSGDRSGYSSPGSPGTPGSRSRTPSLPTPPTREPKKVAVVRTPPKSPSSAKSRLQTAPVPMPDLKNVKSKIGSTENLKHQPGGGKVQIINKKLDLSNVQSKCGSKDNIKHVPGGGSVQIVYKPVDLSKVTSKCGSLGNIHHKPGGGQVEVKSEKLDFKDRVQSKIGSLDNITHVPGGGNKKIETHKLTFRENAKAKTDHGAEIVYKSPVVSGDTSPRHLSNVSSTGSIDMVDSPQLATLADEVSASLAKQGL
T2 sequence (P10636 1-412 isoform P10636-7): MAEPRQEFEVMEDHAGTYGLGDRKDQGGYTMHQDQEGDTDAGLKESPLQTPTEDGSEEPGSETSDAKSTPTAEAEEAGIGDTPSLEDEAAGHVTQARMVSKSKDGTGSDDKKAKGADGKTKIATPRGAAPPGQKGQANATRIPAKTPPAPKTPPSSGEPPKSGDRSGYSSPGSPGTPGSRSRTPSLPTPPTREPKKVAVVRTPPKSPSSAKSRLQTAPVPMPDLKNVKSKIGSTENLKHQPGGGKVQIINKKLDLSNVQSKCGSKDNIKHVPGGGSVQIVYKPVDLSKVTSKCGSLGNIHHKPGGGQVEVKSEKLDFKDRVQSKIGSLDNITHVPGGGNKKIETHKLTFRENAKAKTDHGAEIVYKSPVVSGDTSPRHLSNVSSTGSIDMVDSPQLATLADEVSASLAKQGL

Row | Compound | effect on tau 0N4R oligomer formation by PICUP (tau isoform 0N4R) | effect on p-tau 1N4R oligomer formation by PICUP (p-tau isoform 1N4R) | effect on α-syn fibrils by TEM (α-syn fibrils)
1 | S=C(Nc1ccc(NC(=S)Nc2cccc3[nH]ccc23)cc1)Nc1cccc2[nH]ccc12 [Compound 2, 3-(1H-indol-4-yl)-1-(4-{[(1H-indol-4-yl)carbamothioyl]amino}phenyl)thiourea] | None of these compounds were able to reduce the tau 0N4R oligomer formation | failed to inhibit p-tau oligomer formation | reduced α-syn fibril formation
2 | S=C(Nc1ccc(NC(=S)Nc2cccc3cc[nH]c23)cc1)Nc1cccc2cc[nH]c12 [Compound 8, 3-(1H-indol-7-yl)-1-(4-{[(1H-indol-7-yl)carbamothioyl]amino}phenyl)thiourea] | None of these compounds were able to reduce the tau 0N4R oligomer formation | – | –
